In ChEMBL document CHEMBL3044832, “Synthesis and Insecticidal Activity of N-(Tolyloxybenzyl)-pyrazolecarboxamide Derivatives” (J Pestic Sci, 1999):

Experiments:
Myzus persicae [1] = experiment: Insecticidal activity against Myzus persicae (green peach aphid) assessed as insect mortality at 0.78 ppm; assay type: functional
Myzus persicae [2] = experiment: Insecticidal activity against Myzus persicae (green peach aphid) assessed as insect mortality at 12.5 ppm; assay type: functional
Myzus persicae [3] = experiment: Insecticidal activity against Myzus persicae (green peach aphid) assessed as insect mortality at 3.13 ppm; assay type: functional
Myzus persicae [4] = experiment: Insecticidal activity against Myzus persicae (green peach aphid) assessed as insect mortality at 50 ppm; assay type: functional
[5] = Acute toxicity in Mus musculus (mouse); assay type: organism-based; details: in vivo
Plutella xylostella [6] = experiment: Insecticidal activity against Plutella xylostella (diamondback moth) assessed as insect mortality at 12.5 ppm; assay type: functional
Plutella xylostella [7] = experiment: Insecticidal activity against Plutella xylostella (diamondback moth) assessed as insect mortality at 0.78 ppm; assay type: functional
Plutella xylostella [8] = experiment: Insecticidal activity against Plutella xylostella (diamondback moth) assessed as insect mortality at 50 ppm; assay type: functional
Plutella xylostella [9] = experiment: Insecticidal activity against Plutella xylostella (diamondback moth) assessed as insect mortality at 3.13 ppm; assay type: functional

Row | Compound | mortality at 0.78 ppm (Myzus persicae [1]) | mortality at 12.5 ppm (Myzus persicae [2]) | mortality at 3.13 ppm (Myzus persicae [3]) | mortality at 50 ppm (Myzus persicae [4]) | LD50 [5] | mortality at 12.5 ppm (Plutella xylostella [6]) | mortality at 0.78 ppm (Plutella xylostella [7]) | mortality at 50 ppm (Plutella xylostella [8]) | mortality at 3.13 ppm (Plutella xylostella [9])
1 | CCc1nn(C)c(C(=O)NCc2ccc(Oc3ccccc3C)cc2)c1Cl | 0% | 100% | 0% | 100% | – | – | – | – | –
2 | CCc1cc(C(=O)NCc2ccc(Oc3ccc(C)cc3)cc2)n(C)n1 | 0% | 0% | 0% | 30% | – | – | – | – | –
3 | CC1CCc2c1nn(C)c2C(=O)NCc1ccc(Oc2ccc(C(F)(F)F)cc2)cc1 (configuration not stated) | – | – | – | – | < 30 mg/kg | – | – | – | –
4 | CCc1nn(C)c(C(=O)NCc2ccc(Oc3ccc(C)cc3)cc2)c1Br | 0% | 30% | 0% | 80% | – | – | – | – | –
5 | CCc1nn(C)c(C(=O)NCc2ccc(C(=O)c3ccc(C)cc3)cc2)c1Cl | 30% | 100% | 0% | 100% | – | 100% | 0% | 100% | 0%
6 | CCc1nn(C)c(C(=O)NCc2ccc(Cc3ccc(C)cc3)cc2)c1Cl | 0% | 0% | 0% | 0% | – | 0% | 0% | 80% | 0%
7 | Cc1ccc(Oc2ccc(CNC(=O)c3c4ccccc4nn3C)cc2)cc1 | 0% | 0% | 0% | 0% | – | – | – | – | –
8 | CCc1nn(C)c(C(=O)NCc2ccccc2Oc2cccc(C)c2)c1Cl | 0% | 0% | 0% | 0% | – | – | – | – | –
9 | Cc1ccc(Oc2ccc(CNC(=O)c3c4c(nn3C)C(C)CC4)cc2)cc1 (configuration not stated) | 0% | 80% | 0% | 100% | – | – | – | – | –
10 | CCc1nn(C)c(C(=O)NCc2cccc(Oc3ccc(C)cc3)c2)c1Cl | 0% | 80% | 30% | 80% | – | – | – | – | –
11 | CCc1nn(C)c(C(=O)NCc2ccc(Oc3ccc(C)cc3)cc2)c1OC | 0% | 100% | 100% | 100% | – | – | – | – | –
12 | CCc1nn(C)c(C(=O)NCc2ccc(COc3ccc(C)cc3)cc2)c1Cl | 0% | 0% | 0% | 0% | – | 0% | 0% | 0% | 0%
13 | CCC1CCc2c1nn(C)c2C(=O)NCc1ccc(Oc2ccc(C)cc2)cc1 (configuration not stated) | 0% | 30% | 0% | 80% | – | – | – | – | –
14 | CCc1nn(C)c(C(=O)NCc2ccccc2Oc2ccc(C)cc2)c1Cl | 0% | 0% | 0% | 0% | – | – | – | – | –
15 | CCc1nn(C)c(C(=O)NCc2ccc(Oc3cccc(C)c3)cc2)c1Cl | 0% | 100% | 80% | 100% | – | – | – | – | –
16 | CCc1nn(C)c(C(=O)NCc2ccc(Oc3ccc(C)cc3)cc2)c1Cl [TOLFENPYRAD] | 30% | 100% | 100% | 100% | > 100 mg/kg | 100% | 0% | 100% | 30%
17 | Cc1ccc(Oc2ccc(CNC(=O)c3c(Cl)c(C(C)(C)C)nn3C)cc2)cc1 | 0% | 0% | 0% | 30% | – | – | – | – | –
18 | CCCc1nn(C)c(C(=O)NCc2ccc(Oc3ccc(C)cc3)cc2)c1Cl | 0% | 0% | 0% | 80% | – | – | – | – | –
19 | Cc1ccc(Oc2ccc(CNC(=O)c3c(Cl)c(C(C)C)nn3C)cc2)cc1 | 0% | 30% | 0% | 100% | – | – | – | – | –
20 | CCc1nn(C)c(C(=O)NCc2ccc(Sc3ccc(C)cc3)cc2)c1Cl | 30% | 100% | 0% | 100% | – | 30% | 0% | 30% | 0%
21 | Cc1ccc(Oc2ccc(CNC(=O)c3c4c(nn3C)CCC4)cc2)cc1 | 0% | 30% | 0% | 100% | – | – | – | – | –
22 | CCc1nn(C)c(C(=O)NCc2ccccc2Oc2ccccc2C)c1Cl | 0% | 0% | 0% | 0% | – | – | – | – | –
23 | Cc1ccc(Oc2ccc(CNC(=O)c3c(Cl)c(C)nn3C)cc2)cc1 | 0% | 100% | 0% | 100% | – | – | – | – | –
24 | CCc1nn(C)c(C(=O)NCc2cccc(Oc3ccccc3C)c2)c1Cl | 0% | 30% | 0% | 30% | – | – | – | – | –
25 | Cc1ccc(Oc2ccc(CNC(=O)c3c(Cl)c(C(F)(F)F)nn3C)cc2)cc1 | 0% | 0% | 0% | 0% | – | – | – | – | –
26 | CCc1nn(C)c(C(=O)NCc2cccc(Oc3cccc(C)c3)c2)c1Cl | 0% | 30% | 0% | 80% | – | – | – | – | –
